Key:
[1] = test system: G361 malignant melanoma cells; assay: MTT in vitro cytotoxicity, G361; type: cell-based, human; settings: 24 h treatment, read-out: IC50±S.E., G361
Method: (§1) In vitro cytotoxic activity was determined by the MTT assay in human breast adenocarcinoma (MCF7; ECACC no. 86012803), human osteosarcoma (HOS; ECACC no. 87070202), lung carcinoma (A549; ECACC no. 86012804), malignant melanoma (G361; ECACC no. 88030401), cervix epitheloid carcinoma (HeLa; ECACC no. 93021013), ovarian carcinoma (A2780; ECACC no. 93112519), cisplatin-resistant ovarian carcinoma (A2780R; […] ECACC no 105092802) cancer cell lines, purchased from European Collection of Cell Cultures (ECACC). […] The primary culture of human hepatocytes (HEP220, batch number HEP220819) was obtained from Biopredic International (France). The culture medium was Williams and HAM's F-12 (1∶1) supplemented with penicillin, streptomycin, ascorbic acid, linoleic acid, holo-transferin, ethanolamine, glucagon, insulin, dexamethasone, pyruvate, glucose, glutamine, amphotericin. The medium was enriched for plating with 2% foetal calf serum (v/v). The medium was exchanged for a serum-free medium the day after and the culture was stabilized for additional 24 h. Thereafter, the cells were ready for treatments. […] The MTT assay was performed spectrophotometrically at 540 nm (TECAN, Schoeller Instruments LLC). The cytotoxicity data were expressed as the percentage of viability, where 100% represented the treatments with vehicle (0.1% DMF or 0.1% DMSO). The cytotoxicity data from the cancer cell lines were acquired from three independent experiments (conducted in triplicate) using cells from different passages. The IC50 values were calculated from viability curves. The results are presented as arithmetic means±standard error of the mean (S.E.).

[2] = test system: A549 lung carcinoma cells; assay: MTT in vitro cytotoxicity, A549; type: cell-based, human; settings: 24 h treatment, read-out: IC50±S.E., A549
Method: as §1

[3] = test system: IκB-α degradation (NF-κB signalling pathway); assay: LPS-induced IκB-α degradation (Western blot) in THP-1 macrophages; type: cell-based, human; settings: 300 nM, 30 min after LPS
Method: Macrophage-like THP-1 cells were pretreated with the tested compounds and stimulated by LPS as was describe above. Thirty minutes after the addition of LPS, the medium was aspirated and cells were washed by cold phosphate buffer solution (PBS). Subsequently, the cells were collected using the lysis buffer [50 mM Tris-HCl pH 7.5, 1 mM EGTA, 1 mM EDTA, 1 mM sodium orthovanadate, 50 mM sodium fluoride, 5 mM sodium pyrophosphate, 270 mM sucrose, 0.1% (v/v) Triton X-100, and cOmplete Protease Inhibitor Cocktail (Roche, Germany)] and scraper. The lysis of cells was facilitated by a short (≈30 s) incubation in the ultrasonic water bath. The protein concentration was determined according to Bradford's method. For protein separation, 30 µg of protein was loaded onto the 12% polyacrylamide gel. […] The membranes were incubated with the primary anti-IκB-α antibody at the concentration ratio of 1∶500, or with the primary anti-β-actin at the concentration ration of 1∶5 000 at 4°C for 16 h. After washing, the secondary anti-mouse IgG antibody diluted 1∶2 000 was applied on the membranes and incubated at laboratory temperature (22°C) for 1 h. The amount of the bound secondary antibody was detected colorimetrically by an Opti-4CN Kit according to the manufacturer's manual.

[4] = test system: λ-carrageenan-induced hind paw edema; assay: Carrageenan-induced hind paw edema; type: in vivo, Wistar-SPF rats
Method: Wistar-SPF (6–8 weeks male) rats were obtained from AnLab, Ltd. (Prague, Czech Republic). The animals were kept in plexiglass cages at the constant temperature of 22±1°C and relative humidity of 55±5% for at least 1 week before the experiment. They were given food and water ad libitum. All the experimental procedures were performed according to the National Institutes of Health (NIH) Guide for the Care and Use of Laboratory Animals. In addition, all the tests were conducted under the guidelines of the International Association for the Study of Pain [61]. After a one-week adaptation period, male Wistar-SPF rats (200–250 g) were randomly assigned to five groups (n = 7) of the animals in the study. The first, control group, received 25% DMSO (v/v in water, intraperitoneal; i.p.). The next three groups were pretreated with complexes 2, 4 and 5, and involved into the carrageenan-treatment. The fifth group was treated with a non-steroidal anti-inflammatory drug Indomethacin (5 mg/kg), which served as a positive control group (Indomethacin + carrageenan).
The carrageenan-induced hind paw edema model was used for the determination of anti-inflammatory activity. Animals were i.p. pretreated with complexes 2, 4, and 5 (the dosages of the individual complexes were adjusted to contain the same amount of gold as in 10 mg/kg dose of Auranofin), Indomethacin (5 mg/kg), or 25% DMSO (v/v in water) 30 min prior to the injection of 1% λ-carrageenan solution (50 µL) into the plantar side of right hind paws of the rats. The paw volume was measured immediately after the carrageenan injection (this value was set-up as baseline value for the hind paw volume) and during the next 6 h after the administration of the edematogenic agent using a plethysmometer (model 7159, Ugo Basile, Varese, Italy). The degree of swelling was evaluated as a percentage of the change of the volume of the right hind paw after the carrageenan treatment from the baseline volume. A non-steroidal anti-inflammatory drug Indomethacin was used as a positive control and the obtained data were also compared with the previously reported profile of antiedematous activity for Auranofin [38]. After 6 h, the animals were sacrificed and the edematous feet were dissected, the tissue from the plantar parts was extracted, fixed and stained by a standard hematoxylin/eosin (HE) staining for cytological evaluation of polymorphonuclear cells infiltration.
The statistically significant differences between individual groups during anti- inflammatory testing were evaluated using a one-way ANOVA test for statistical analysis, followed by Tukey's post-hoc test for multiple comparisons. GraphPad Prism 5.02 (GraphPad Software Inc., San Diego, CA, USA) was used to perform the analysis. The results are presented as arithmetic means±S.E. values.

[5] = test system: MCF7 breast carcinoma cells; assay: MTT in vitro cytotoxicity, MCF7; type: cell-based, human; settings: 24 h treatment, read-out: IC50±S.E., MCF7
Method: as §1

[6] = test system: HeLa cervix epitheloid carcinoma cells; assay: MTT in vitro cytotoxicity, HeLa; type: cell-based, human; settings: 24 h treatment, read-out: IC50±S.E., HeLa
Method: as §1

[7] = test system: A2780R ovarian carcinoma cells resistant to cisplatin; assay: MTT in vitro cytotoxicity, A2780R; type: cell-based, human; settings: 24 h treatment, MTT; read-out: IC50±S.E., A2780R
Method: as §1

[8] = i.p., dose equivalent in gold to 10 mg/kg Auranofin

| Structure (SMILES) | IC50 [1] | IC50 [2] | effect on LPS-induced IκB degradation [3] | antiedematous effect compared with Auranofin ([4]; after 180 min, p<0.001, Auranofin profile from ref 38) | overall antiedematous / anti-inflammatory activity [4, 8] | antiedematous activity profile up to 180 min after carrageenan ([4]; i.p., dose equivalent in gold to 10 mg/kg Auranofin, 30 min before carrageenan) | antiedematous activity after 180 min ([4]; i.p., dose equivalent in gold to 10 mg/kg Auranofin, up to 6 h) | IC50 [5] | IC50 [6] | IC50 [7] |
| --- | --- | --- | --- | --- | --- | --- | --- | --- | --- | --- |
| CC(C)Oc1ncnc2cc[n]([Au])c12.c1ccc(P(c2ccccc2)c2ccccc2)cc1 [complex 2, [Au(L2)(PPh3)]] | 3.4 ± 0.1 µM | 17.2 ± 0.7 µM | block moderately the IκB degradation | even better than that of gold-containing metallodrug Auranofin | significant anti-inflammatory effects | very similar pharmacological profiles of complexes 2 and 4 with the reference drug Indomethacin | elimination of hind paw swelling | 0.6 ± 0.1 µM | 16 ± 0.2 µM | 5.3 ± 0.4 µM |
| [Au][n]1ccc2ncnc(OCCc3ccccc3)c21.c1ccc(P(c2ccccc2)c2ccccc2)cc1 [complex 5] | 3.5 ± 0.2 µM | 18.3 ± 0.5 µM | block moderately the IκB degradation |  | inactive |  |  | > 50 µM | 22.8 ± 0.5 µM | 5 ± 0.3 µM |
